Consider 5 molecules from US20240408152A1, “NOVEL ENTEROCOCCUS FAECIUM LCM001 STRAIN, AND USE THEREOF” (MBIOMETHERAPEUTICS CO., LTD., priority 2021, published 2024).

This assay concerns human non-small cell lung cancer (NSCLC) A549 cells. Kind of assay: MTT cell viability assay, lung cancer cells. It counts as cell-based. How it is done:
The human non-small cell lung cancer (NSCLC) A549 cells were cultured in RPMI 1640 culture medium supplemented with 10% fetal bovine serum (FBS) and 1% penicillin/streptomycin in a incubator at 37° C. in a 5% CO2. Human normal fibroblast lung cell Wi38 were cultured in MEM culture medium supplemented with 10% FBS and 1% penicillin/streptomycin.
The cell viability rate was measured using MTT [3-(4,5-dimethylthiazol-2-yl)-2,5-diphenyl-tetrazolium bromide] assay. Specifically, lung cancer cells (A549, 7×10^3 cells/well), colon cancer cells (HCT-15, 5×10^3 cells/well), liver cancer cells (Sk-hep-1, 5×10^3 cells/well), pancreatic cancer cells (PANC-1, 5×10^3 cells/well), and breast cancer cells (MCF-7, 2×10^3 cells/well) were seeded in a 96-well culture plate at 3 times repeatedly, and cultured overnight at 37° C. in 5% CO2 with RPMI 1640 medium containing 10% FBS. Subsequently, the cell-free supernatant was added to each well at concentrations of 1×, 2×, 5×, and 10×, with 100 μL per well, and cultured for 24 hours at 37° C. in 5% CO2.
To assess cell apoptosis, MTT reagent at a concentration of 5 mg/ml was added to each well with 10 μL per well and reacted for 4 hours at 37° C. in 5% CO2. The cells were then dissolved in dimethyl sulfoxide (DMSO, 100 μL/well), and the absorbance at 570 nm was measured using a microplate reader.
The cell viability rate was calculated as a percentage using the following formula. The cell toxicity test was conducted in triplicate, and the values are presented as mean±standard deviation.
To confirm the efficacy of Cyclo(L-pro-L-tyr), the active ingredient of Enterococcus faecium LCM001, as well as its derivatives on apoptosis of non-small cell lung cancer A549 cells, the inventors conducted an MTT assay on Cyclo(L-pro-L-tyr), Cyclo(L-Phe-L-pro), Cyclo(L-Phe-trans-4-hydroxy-L-Pro), Cyclo(L-Pro-D-Phe), and Cyclo(Tyr-Hpro), and calculated their IC50 values.
In general terms: Tetrazolium dyes change colour on reduction, which living cells bring about.

Converted amounts (≈) assume the structure as drawn. Read-outs that look alike come from different tables or passages of the source.

What is called IC50 is the concentration that gives 50% inhibition. `O=C1N[C@@H](Cc2ccccc2)C(=O)N2C[C@H](O)C[C@@H]12` (relative stereo) [Cyclo(L-Phe-trans-4-hydroxy-L-Pro)]: the IC50 is 57.58 µg/mL (≈ 221 µM).
Same read-out and setting: for `O=C1N[C@@H](Cc2ccccc2)C(=O)N2CCC[C@@H]12` [Cyclo(L-Phe-L-pro)] the value was 26.1 µg/mL (≈ 107 µM); for `O=C1NC(Cc2ccccc2)C(=O)N2CCCC12` [Cyclo(L-Pro-D-Phe)], 94.56 µg/mL (≈ 387 µM).
With `O=C1NC(Cc2ccc(O)cc2)C(=O)N2CCC[C@@H]12` (stereo partly drawn) [Cyclo(L-pro-L-tyr), Cyclo(L-Pro-L-Tyr)], the IC50 (Homo sapiens, read-out: IC50) amounted to 99.6 µg/mL (≈ 382 µM).
With `O=C1NC(Cc2ccc(O)cc2)C(=O)N2CC(O)CC12` (centres unmarked) [Cyclo(Tyr-Hpro)], the IC50 came to 119 µg/mL (≈ 431 µM).
